Tests used:
[1] = tested on: human cell lines (A549, ASC, HA1E, HT29, MCF7, PC3, VCAP); test: Differential gene expression (QuantSeq RNA sequencing) after bumetanide treatment of cell lines; format: cell-based; conditions: 10 uM, 6 or 24 hours, across cell lines
Method: To characterize the cell line invariant mechanism of action, bumetanide was tested across different human cell lines including several cancer cell lines (such as A549, MCF7, PC3, HT29 and VAP) as well as cells from healthy tissues (such as ASC and HA1E). These cell lines (Table 3) were chosen due to their ease of manipulation and suitability for systematic screening. […] Incubation of cell types was performed inside an incubator with a humified atmosphere of 95% and 5% of CO2, and a constant temperature of 37° C. Cells were treated with bumetanide using a dilution of 10 uM for all replicates at a time duration of 6 or 24 hours. [table] Following drug treatment, RNA extracted from each treated cell line was sequenced with QuantSeq with 4-6 million coverage reads per sample in triplicates.

[2] = tested on: patients with idiopathic ASD; test: Observational clinical pilot study: earlier oral bumetanide treatment of ASD patients; format: in vivo, human; conditions: three patients with idiopathic ASD; oral solution 0.5, 1.0 or 2 mg twice daily for three months
Method: The main goal of this pilot study was to validate the clinical benefit of bumetanide in patients showing clinical signs and symptoms characterizing ASD phenotype 3. First, a custom semi-structured online clinical questionnaire (Questionnaire […] 2021) comprising a total of 38 medical examination questions and 73 medical history questions was administered by a clinician during a remote screening visit (over the phone) that took up to 90 min. This remote screening visit included reviewing detailed medical history and clinical signs and symptoms related to ASD phenotype 3 with the patient/caregiver for a clinical validation. […]

ASD patients = conditions: clinical setting; heterogeneous responses reported; cited from earlier work

SMILES | DEG ranking after treatment, GNAS ([1]; gene GNAS) | Direction of differential expression, GNAS ([1]; gene GNAS) | DEG ranking after treatment, KCNJ6 ([1]; gene KCNJ6) | DEG ranking after treatment, KCNJ10 ([1]; gene KCNJ10) | DEG ranking after treatment, KCNK3 ([1]; gene KCNK3) | DEG ranking after treatment, KCNQ3 ([1]; gene KCNQ3) | DEG ranking after treatment, KCNV1 ([1]; gene KCNV1) | DEG ranking after treatment, SLC12A5 (KCC2) ([1]; gene SLC12A5 (KCC2)) | DEG ranking after treatment, SNAP25 ([1]; gene SNAP25) | Clinical response of ASD patients to treatment [2] | Effect on behaviour in ASD patients (ASD patients)
CCCCNc1cc(C(=O)O)cc(S(N)(=O)=O)c1Oc1ccccc1 [bumetanide, 3-(butylamino)-4-phenoxy-5-sulfamoylbenzoic acid] | 1 | DOWN | 19 | 113 | 49 | 48 | 165 | 35 | 1 | shown improvement | –
C[S+]([O-])CCCCN=C=S (centres unmarked) [sulforaphane] | – | – | – | – | – | – | – | – | – | – | improve behaviour in some ASD patients

From US20230134747A1, “COMPOSITIONS FOR THE TREATMENT OF AUTISM SPECTRUM DISORDER” (STALICLA SA, priority 2020, published 2023)
